We go through 17 compounds from US6589963B2, “Heterocyclic compounds and salts thereof and medicinal use of the same” (Kyoto Pharmaceutical Industries, Ltd., priority 1999, dated 2003).

In one test the test system is 3T3-L1 cells. Kind of test: Triglyceride accumulation promoting action in 3T3-L1 cells. The settings on record: 10^−7 M test compound with 10 ng/ml insulin, 4 days; relative to control. In kind it is cell-based. How it is done:
A culture medium of 80% confluent 3T3-L1 cells was removed and the cells were dissociated with 0.25% trypsin-EDTA solution. 5% FBS-DMEM (the same amount as the removed medium) was added and the obtained cell suspension was centrifuged at 25° C., 100×g for 1 min to give cell sediment and the supernatant was removed. The cells were re-suspended in a suitable amount of 5% FBS-DMEM medium and the cells were counted. 5% FBS-DMEM medium was added to adjust the concentration to 1×10^5 cells/ml and the mixture was dispensed by 1 ml to a 24 well plate. The cells were cultured with aeration of 5% CO2 at 37° C. for 2 days. Upon confirmation of a post-confluent state, the culture supernatant was changed to a medium containing 0.5 mM-IBMX, and the cells were cultured for 2 days. Then, the medium was changed to a medium containing 10 ng/ml insulin and 10^−7 M test compound and the cells were cultured further for 4 days. After removing the culture supernatant, the cells were lysed in a 0.1% SDS solution and the triglyceride amount was measured. The triglyceride accumulation (%) due to the potentiation of insulin activity by the test compound was calculated from the following formula.
[(triglyceride amount with addition of test compound−triglyceride amount of control)/triglyceride amount of control]×100

For test [1], the system named is male KK-A^y mice. Kind of test: Hypotriglyceridemic action. In kind it is in vivo, mouse. The settings on record: dose 30 mg/kg orally, 4 consecutive days, non-fasting, about 24 hours after final administration, vs control group. As for the experimental part:
(§1) The triglyceride level in the plasma was measured using a commercially available assay kit (triglyceride G-test WAKO, Wako Pure Chemical Industries, Ltd.). The mice were grouped (5 mice per group) into a control group and an administration group, such that the mean and the standard deviation of the triglyceride level in the plasma of each group were nearly the same. Each test compound was suspended or dissolved in 5% gum arabic solution and administered orally to the administration group for 4 consecutive days from the next day. The 5% gum arabic solution was orally administered to the control group. Blood was drawn from the tail vein under a non-fasting state about 24 hours after the final administration and the triglyceride level in the plasma was measured. The decrease in the plasma triglyceride level was calculated from the following formula.
Decrease (%) in plasma triglyceride level=[(mean plasma triglyceride level of control group−mean plasma triglyceride level of test compound administration group)/mean plasma triglyceride level of control group]×100

Test [2] has as its system male KK-A^y mice. Kind of test: Hypoglycemic action (method A). In kind it is in vivo, mouse. The settings on record: 4 consecutive days, non-fasting, about 24 hours after final administration, vs control group. How it is done: as §1, with “glucose” for “triglyceride”, “(glucose CII-test” for “(triglyceride G-test”
Decrease (%) in plasma glucose level=[(mean plasma glucose level of control group−mean plasma glucose level of test compound administration group)/mean plasma glucose level of control group]×100

Regarding `CCCCCC(=O)N1Cc2cc(OCCc3nc(-c4ccccc4)oc3C)ccc2C[C@H]1C(=O)O` [Example 5, 2-Hexanoyl-7-[2-(5-methyl-2-phenyloxazol-4-yl)ethoxy]-1,2,3,4-tetrahydroisoquinoline-(3S)-carboxylic acid], in the test on 3T3-L1 cells, the “Triglyceride accumulation (%)” value turned out to be 233.0%. Moreover, the “Decrease (%) in plasma triglyceride level” value in the test with male KK-A^y mice [1] was found to be 30.9%. In addition, the “Decrease (%) in plasma glucose level” value with male KK-A^y mice [2] (dose 10 mg/kg orally) amounted to 34.1%; with male KK-A^y mice [2] (dose 30 mg/kg orally), 43.4%.

On to `Cc1oc(-c2ccccc2)nc1CCOc1ccc2c(c1)CN(CC1CCCCC1)[C@H](C(=O)O)C2` [Example 8, 2-Cyclohexylmethyl-7-[2-(5-methyl-2-phenyloxazol-4-yl)ethoxy]-1,2,3,4-tetrahydroisoquinoline-(3S)-carboxylic acid], for which, in the test with 3T3-L1 cells, the “Triglyceride accumulation (%)” value was determined as 275.5%.

On to `COc1ccc(CN2Cc3cc(OCCc4nc(-c5ccccc5)oc4C)ccc3C[C@H]2C(=O)O)cc1` [Example 16, 2-(4-Methoxybenzyl)-7-[2-(5-methyl-2-phenyloxazol-4-yl)ethoxy]-1,2,3,4-tetrahydroisoquinoline-(3S)-carboxylic acid], for which the “Triglyceride accumulation (%)” value in the test with 3T3-L1 cells amounted to 288.9%. Further, the “Decrease (%) in plasma triglyceride level” value in the test on male KK-A^y mice [1] amounted to 19.8%. The “Decrease (%) in plasma glucose level” value in the test on male KK-A^y mice [2] (dose 30 mg/kg orally) was 34.5%.

As to `Cc1oc(-c2ccccc2)nc1CCOc1ccc2c(c1)CN(Cc1ccc(F)cc1)[C@H](C(=O)O)C2` [Example 21, 2-(4-Fluorobenzyl)-7-[2-(5-methyl-2-phenyloxazol-4-yl)ethoxy]-1,2,3,4-tetrahydroisoquinoline-(3S)-carboxylic acid], in the test with 3T3-L1 cells, the “Triglyceride accumulation (%)” value turned out to be 284.9%. Further, the “Decrease (%) in plasma triglyceride level” value in the test with male KK-A^y mice [1] was found to be 24.4%. The “Decrease (%) in plasma glucose level” value in the test on male KK-A^y mice [2] (dose 30 mg/kg orally) was 43.4%.

With `Cc1oc(-c2cccs2)nc1CCOc1ccc2c(c1)CN(Cc1ccccc1)[C@H](C(=O)O)C2` [Example 33, 2-Benzyl-7-[2-(5-methyl-2-(thiophen-2-yl)oxazol-4-yl)ethoxy]-1,2,3,4-tetrahydroisoquinoline-(3S)-carboxylic acid], in the test with 3T3-L1 cells, the “Triglyceride accumulation (%)” value was determined as 222.5%. The “Decrease (%) in plasma triglyceride level” value in the test on male KK-A^y mice [1] turned out to be 42.0%. For the same compound, the “Decrease (%) in plasma glucose level” value in the test on male KK-A^y mice [2] (dose 30 mg/kg orally) stood at 38.8%.

As to `C=CCCc1nc(CCOc2ccc3c(c2)CN(Cc2ccccc2)[C@H](C(=O)O)C3)c(C)o1` [Example 37], the “Triglyceride accumulation (%)” value in the test with 3T3-L1 cells stood at 277.3%. Besides, the “Decrease (%) in plasma glucose level” value with male KK-A^y mice [2] (dose 30 mg/kg orally) is recorded as 11.1%.

Regarding `C#CCN1Cc2cc(OCCc3nc(-c4ccccc4)oc3C)ccc2C[C@H]1C(=O)O` [Example 39, 7-[2-(5-Methyl-2-phenyloxazol-4-yl)ethoxy]-2-(2-propynyl)-1,2,3,4-tetrahydroisoquinoline-(3S)-carboxylic acid], the “Triglyceride accumulation (%)” value with 3T3-L1 cells was determined as 258.0%. In the test on male KK-A^y mice [1], the “Decrease (%) in plasma triglyceride level” value is 15.6%. Also, in the test on male KK-A^y mice [2] (dose 30 mg/kg orally), the “Decrease (%) in plasma glucose level” value was 30.7%.

For the compound `CC=CCN1Cc2cc(OCCc3nc(-c4ccccc4)oc3C)ccc2C[C@H]1C(=O)O` [Example 40], the “Triglyceride accumulation (%)” value in the test on 3T3-L1 cells came out at 231.0%. The “Decrease (%) in plasma triglyceride level” value in the test with male KK-A^y mice [1] turned out to be 36.1%. In addition, the “Decrease (%) in plasma glucose level” value with male KK-A^y mice [2] (dose 30 mg/kg orally) came out at 46.3%.

As to `CCCCC(=O)N1Cc2cc(OCCc3nc(-c4ccccc4)oc3C)ccc2C[C@H]1C(=O)O` [Example 43, 7-[2-(5-Methyl-2-phenyloxazol-4-yl)ethoxy]-2-pentanoyl-1,2,3,4-tetrahydroisoquinoline-(3S)-carboxylic acid], in the test with male KK-A^y mice [1], the “Decrease (%) in plasma triglyceride level” value is 20.9%. The “Decrease (%) in plasma glucose level” value in the test on male KK-A^y mice [2] (dose 30 mg/kg orally) is 27.5%.

In the case of `CC(C)(CCOc1ccc2c(c1)CN(Cc1ccccc1)[C@H](C(=O)O)C2)c1ccccc1` [Example 49, 2-Benzyl-7-(3-methyl-3-phenylbutoxy)-1,2,3,4-tetrahydroisoquinoline-(3S)-carboxylic acid], the “Decrease (%) in plasma triglyceride level” value in the test with male KK-A^y mice [1] is 17.0%. Also, the “Decrease (%) in plasma glucose level” value in the test on male KK-A^y mice [2] (dose 30 mg/kg orally) came out at 11.1%.

For `CC(C)(CCOc1ccc2c(c1)CN(Cc1ccccc1)[C@H](C(=O)O)C2)Cc1ccccc1` [Example 50, 2-Benzyl-7-(3,3-dimethyl-4-phenylbutoxy)-1,2,3,4-tetrahydroisoquinoline-(3S)-carboxylic acid], the “Decrease (%) in plasma triglyceride level” value in the test with male KK-A^y mice [1] came to 35.7%. In addition, the “Decrease (%) in plasma glucose level” value in the test with male KK-A^y mice [2] (dose 30 mg/kg orally) turned out to be 11.4%.

For the compound `CC(C)c1nc2ccc(COc3ccc4c(c3)CN(Cc3ccccc3)[C@H](C(=O)O)C4)cc2o1` [Example 51, 2-Benzyl-7-(2-isopropylbenzoxazol-6-yl)methoxy-1,2,3,4-tetrahydroisoquinoline-(3S)-carboxylic acid], in the test with male KK-A^y mice [1], the “Decrease (%) in plasma triglyceride level” value is recorded as 10.7%. Also, the “Decrease (%) in plasma glucose level” value with male KK-A^y mice [2] (dose 30 mg/kg orally) came out at 20.0%.

Regarding `CC(C)(C)c1nc2ccc(COc3ccc4c(c3)CN(Cc3ccccc3)[C@H](C(=O)O)C4)cc2o1` [Example 52, 2-Benzyl-7-(2-tert-butylbenzoxazol-6-yl)methoxy-1,2,3,4-tetrahydroisoquinoline-(3S)-carboxylic acid], in the test on male KK-A^y mice [1], the “Decrease (%) in plasma triglyceride level” value stood at 26.6%. For the same compound, the “Decrease (%) in plasma glucose level” value in the test on male KK-A^y mice [2] (dose 30 mg/kg orally) was 26.3%.

Consider `COC(=O)[C@@H]1Cc2ccc(OCCc3nc(-c4ccccc4)oc3C)cc2CN1Cc1ccccc1` [Example 58, Methyl 2-benzyl-7-[2-(5-methyl-2-phenyloxazol-4-yl)ethoxy]-1,2,3,4-tetrahydroisoquinoline-(3S)-carboxylate], for which, in the test with male KK-A^y mice [1], the “Decrease (%) in plasma triglyceride level” value came to 24.7%. The “Decrease (%) in plasma glucose level” value in the test with male KK-A^y mice [2] (dose 30 mg/kg orally) was determined as 19.1%.

Regarding `CCC=Cc1nc(CCOc2ccc3c(c2)CN(Cc2ccccc2)[C@H](C(=O)O)C3)c(C)o1` [Example 62, 2-Benzyl-7-{2-[2-(1-butenyl)-5-methyloxazol-4-yl]ethoxy}-1,2,3,4-tetrahydroisoguinoline-(3S)-carboxylic acid], the “Triglyceride accumulation (%)” value with 3T3-L1 cells came to 327.8%.

In the case of `Cc1oc(-c2ccccc2)nc1CCOc1ccc2c(c1)CN(CC(=O)O)[C@H](C(=O)O)C2` [Example 69, 2-Carboxymethyl-7-[2-(5-methyl-2-phenyloxazol-4-yl)ethoxy]-1,2,3,4-tetrahydroisoquinoline-(3S)-carboxylic acid], the “Decrease (%) in plasma triglyceride level” value in the test with male KK-A^y mice [1] was found to be 15.2%. In the test with male KK-A^y mice [2] (dose 30 mg/kg orally), the “Decrease (%) in plasma glucose level” value amounted to 12.5%.

In the case of `CC(=O)c1cccc(CN2Cc3cc(OCCc4nc(-c5ccccc5)oc4C)ccc3C[C@H]2C(=O)O)c1` [Example 73, 2-(3-Acetylbenzyl)-7-[2-(5-methyl-2-phenyloxazol-4-yl)ethoxy]-1,2,3,4-tetrahydroisoquinoline-(3S)-carboxylic acid], the “Decrease (%) in plasma triglyceride level” value in the test with male KK-A^y mice [1] came to 15.4%. In addition, the “Decrease (%) in plasma glucose level” value in the test on male KK-A^y mice [2] (dose 30 mg/kg orally) was 14.8%.
